Here are results for 9 molecules from patent US10253274B2, “Compounds and methods for inhibiting corrosion in hydrocarbon processing units” (General Electric Company, priority 2012, dated 2019).

The nature of the first data set: Neutralization efficiency by two-phase titration (pH at amine titrant concentration). The data set is classed as physicochemical. As to conditions: Table 1; 250 ppm amine titrant, 100° C., first set of tests. On the procedure: Several amines were tested to determine their efficiencies in neutralizing acidic species and reducing deposits of hydrochloride and amine salts. The neutralization efficiency of these amines was tested using two-phase titration. For each amine tested, a titrand (100 ml) was placed in a flask. The titrand was designed to simulate an initial condensate and comprised 90 vol % naphtha and 10 vol % acidic water. The titrand was heated to 100° C. and maintained at that temperature while amine titrant was added to the flask.
A second set of tests were performed using some of the effective amines above. Additional tertiary amines were also tested and found to be effective. The additional tertiary amines were N-methyl piperidine, 2-dimethylamino 2-methyl 1-propanol (“DMAMP”) in an azeotropic solution comprising 80 wt % amine, N,N,N′,N′-tetramethyldiamino methane (“TMMD”), dimethyl tertiary butanolamine (“DMTBA”), and dimethyl methoxypropylamine (“DMMOPA”). The neutralization efficiency of these amines was tested using two-phase titration. For each amine tested, a titrand (100 ml) was placed in a flask. The titrand was designed to simulate an initial condensate and comprised 90 vol % naphtha and 10 vol % acidic water. The titrand was heated to 100° C. and maintained at that temperature while amine titrant was added to the flask. The tests were repeated 3 times in the second set of tests. The data in Table 2 are the averages of the 3 repeated tests.
Turning to `CCCCN(C)CCCC` [N-methyldibutylamine], the “Neutral. Efficiency pH at 250 ppm” value was found to be 1.9.
On the same count and under the same terms, to `CN(C)C1CCCCC1` [Dimethylcyclohexylamine, dimethylcyclohexylamine] belongs 1.8; to `CN1CCCC1` [N-methylpyrrolidine], 2.2; to `CCCNCCC` [di-N-propyl amine, di-N-propylamine], 2.2.
As for `CCCN(C)CCC` [N-methyldipropylamine], the “Neutral. Efficiency pH at 250 ppm” value worked out at 2.4.
On the same count and under the same terms, the figure for `CN1CCN(C)CC1` [1,4-dimethylpiperazine] is 3.7; for `NCc1ccco1` [Furfurylamine, furfurylamine] it is 2.6.
With `CN1CCOCC1` [N-methylmorpholine (NMM), N-methylmorpholine, reference compound], the “Neutral. Efficiency pH at 250 ppm” value is on record as 2.4.
Turning to `CC(C)C(C)N` (stereo not shown) [1,2 Dimethyl propyl amine, 1,2 dimethylpropylamine], the “Neutral. Efficiency pH at 250 ppm” value is 1.4.

Staying with this data set, now noted: Table 1; 500 ppm amine titrant, 100° C., first set of tests.
On to `CCCCN(C)CCCC` [N-methyldibutylamine], for which the “Neutral. Efficiency pH at 500 ppm” value was found to be 2.0.
`CN(C)C1CCCCC1` [Dimethylcyclohexylamine, dimethylcyclohexylamine]: the “Neutral. Efficiency pH at 500 ppm” value amounted to 1.9.
In the case of `CN1CCCC1` [N-methylpyrrolidine], the “Neutral. Efficiency pH at 500 ppm” value is on record as 6.8.
On to `CCCNCCC` [di-N-propyl amine, di-N-propylamine], for which the “Neutral. Efficiency pH at 500 ppm” value worked out at 3.0.
`CCCN(C)CCC` [N-methyldipropylamine]: the “Neutral. Efficiency pH at 500 ppm” value is on record as 2.8.
On the same count and under the same terms, the figure for `CN1CCN(C)CC1` [1,4-dimethylpiperazine] is 5.5.
Regarding `NCc1ccco1` [Furfurylamine, furfurylamine], the “Neutral. Efficiency pH at 500 ppm” value was found to be 6.5.
As for `CN1CCOCC1` [N-methylmorpholine (NMM), N-methylmorpholine, reference compound], the “Neutral. Efficiency pH at 500 ppm” value is 5.4.
Still for that read-out and setting: to `CC(C)C(C)N` (stereo not shown) [1,2 Dimethyl propyl amine, 1,2 dimethylpropylamine] belongs 8.5.

Staying with this data set, now noted: Table 1; 1000 ppm amine titrant, 100° C., first set of tests.
For `CCCCN(C)CCCC` [N-methyldibutylamine], the “Neutral. Efficiency pH at 1000 ppm” value came to 5.0.
The same measure, in the same setting: the figure for `CN(C)C1CCCCC1` [Dimethylcyclohexylamine, dimethylcyclohexylamine] is 5.2.
For `CN1CCCC1` [N-methylpyrrolidine], the “Neutral. Efficiency pH at 1000 ppm” value came to 8.1.
With `CCCNCCC` [di-N-propyl amine, di-N-propylamine], the “Neutral. Efficiency pH at 1000 ppm” value amounted to 7.6.
For `CCCN(C)CCC` [N-methyldipropylamine], the “Neutral. Efficiency pH at 1000 ppm” value turned out to be 5.6.
In the case of `CN1CCN(C)CC1` [1,4-dimethylpiperazine], the “Neutral. Efficiency pH at 1000 ppm” value was determined as 7.6.
As to `NCc1ccco1` [Furfurylamine, furfurylamine], the “Neutral. Efficiency pH at 1000 ppm” value worked out at 8.5.
The same measure, in the same setting: to `CN1CCOCC1` [N-methylmorpholine (NMM), N-methylmorpholine, reference compound] belongs 6.8.
Consider `CC(C)C(C)N` (stereo not shown) [1,2 Dimethyl propyl amine, 1,2 dimethylpropylamine], for which the “Neutral. Efficiency pH at 1000 ppm” value came out at 9.6.

Staying with this data set, now noted: Table 2; 250 ppm amine titrant, 100° C., second set, averages of 3 repeated tests.
`CN1CCCC1` [N-methylpyrrolidine]: the “Neutral. Efficiency pH at 250 ppm” value was 2.2.
Still for that read-out and setting: to `CN1CCN(C)CC1` [1,4-dimethylpiperazine] belongs 3.7; to `CN1CCOCC1` [N-methylmorpholine (NMM), N-methylmorpholine, reference compound], 2.4; to `CC(C)C(C)N` (stereo not shown) [1,2 Dimethyl propyl amine, 1,2 dimethylpropylamine], 1.4.

The same data set, now with this note: Table 2; 500 ppm amine titrant, 100° C., second set, averages of 3 repeated tests.
`CN1CCCC1` [N-methylpyrrolidine]: the “Neutral. Efficiency pH at 500 ppm” value worked out at 6.8.
For `CN1CCN(C)CC1` [1,4-dimethylpiperazine], the “Neutral. Efficiency pH at 500 ppm” value was 5.5.
With `CN1CCOCC1` [N-methylmorpholine (NMM), N-methylmorpholine, reference compound], the “Neutral. Efficiency pH at 500 ppm” value was found to be 5.4.
On the same count and under the same terms, to `CC(C)C(C)N` (stereo not shown) [1,2 Dimethyl propyl amine, 1,2 dimethylpropylamine] belongs 8.5.

Still in this data set, the particulars now being: Table 2; 1000 ppm amine titrant, 100° C., second set, averages of 3 repeated tests.
With `CN1CCCC1` [N-methylpyrrolidine], the “Neutral. Efficiency pH at 1000 ppm” value worked out at 8.1.
On to `CN1CCN(C)CC1` [1,4-dimethylpiperazine], for which the “Neutral. Efficiency pH at 1000 ppm” value was 7.6.
With `CN1CCOCC1` [N-methylmorpholine (NMM), N-methylmorpholine, reference compound], the “Neutral. Efficiency pH at 1000 ppm” value was found to be 6.8.
On to `CC(C)C(C)N` (stereo not shown) [1,2 Dimethyl propyl amine, 1,2 dimethylpropylamine], for which the “Neutral. Efficiency pH at 1000 ppm” value is listed as 9.6.

Another data set is described as follows: Amine-HCl salt precipitation potential index (Salt PPI) relative to ammonia salt. As to conditions: Table 1; average over 225 to 300° F., ammonia benchmark = 1.0. The data set is classed as physicochemical. The source says:
Without limiting this specification to any particular theory of operation, the overall efficiency of a given amine may be predicted upon assessment of several factors. One such factor is the amine-HCl salt precipitation potential index (“Salt PPI”). The Salt PPI may also be known by those in the art as the salt volatility index. These indices are merely a comparison of the precipitation potential of the amine salt to the salt of a typical neutralizing compound used in hydrocarbon refining, ammonia.
Salt PPI may be calculated from the equation: […]
If one were to substitute the vapor pressure of ammonia for the vapor pressure of the amine in the equation, the Salt PPI would be 1.0. Effective amines are those that are as good, if not better than the typical additive, ammonia. Thus, effective amines would have a Salt PPI of equal to or less than 1.0. Other neutralizers commonly used in hydrocarbon refining are trimethylamine and N-methylmorpholine.
Take `CCCCN(C)CCCC` [N-methyldibutylamine]: the “Salt PPI” value is under 0.1.
Same read-out and setting: to `CN(C)C1CCCCC1` [Dimethylcyclohexylamine, dimethylcyclohexylamine] belongs 0.10; to `CN1CCCC1` [N-methylpyrrolidine], under 0.1; to `CCCNCCC` [di-N-propyl amine, di-N-propylamine], 0.24.
In the case of `CCCN(C)CCC` [N-methyldipropylamine], the “Salt PPI” value was under 0.1.
Take `CN1CCN(C)CC1` [1,4-dimethylpiperazine]: the “Salt PPI” value is listed as under 0.1.
As for `NCc1ccco1` [Furfurylamine, furfurylamine], the “Salt PPI” value was found to be 0.38.
The same measure, in the same setting: to `CN1CCOCC1` [N-methylmorpholine (NMM), N-methylmorpholine, reference compound] belongs 0.18.
On to `CC(C)C(C)N` (stereo not shown) [1,2 Dimethyl propyl amine, 1,2 dimethylpropylamine], for which the “Salt PPI” value is under 0.1.

Still in this data set, the particulars now being: Table 2; average over 225 to 300° F., ammonia benchmark = 1.0.
Turning to `CN1CCCC1` [N-methylpyrrolidine], the “Salt PPI” value was determined as 0.10.
With `CN1CCN(C)CC1` [1,4-dimethylpiperazine], the “Salt PPI” value stood at 0.18.
Turning to `CN1CCOCC1` [N-methylmorpholine (NMM), N-methylmorpholine, reference compound], the “Salt PPI” value is recorded as 0.18.
In the case of `CC(C)C(C)N` (stereo not shown) [1,2 Dimethyl propyl amine, 1,2 dimethylpropylamine], the “Salt PPI” value was 0.30.

The next data set can be described thus: pKa of the amine. The data set is classed as physicochemical. The conditions noted are these: Table 1. The source says:
Another factor indicative of the overall efficiency of a given amine is the logarithm of the acid dissociation constant, pKa. Generally, amines with higher pKa values are more efficient neutralizers. Accordingly, in another embodiment, the treatment composition may comprise an amine with a pKa equal to or greater than about 5.0.
By pKa is commonly meant the negative logarithm of the acid dissociation constant. `CCCNCCC` [di-N-propyl amine, di-N-propylamine] registered a pKa of 10.91.

Still in this data set, the particulars now being: Table 1; read-out: pKa.
On to `CCCCN(C)CCCC` [N-methyldibutylamine], for which the pKa was found to be 10.3.
With `CN(C)C1CCCCC1` [Dimethylcyclohexylamine, dimethylcyclohexylamine], the pKa turned out to be 10.
Regarding `CN1CCCC1` [N-methylpyrrolidine], the pKa worked out at 10.3.
On the same count and under the same terms, to `CCCN(C)CCC` [N-methyldipropylamine] belongs 10.1; to `CN1CCN(C)CC1` [1,4-dimethylpiperazine], 8.2.
The same measure, in the same setting: to `NCc1ccco1` [Furfurylamine, furfurylamine] belongs 8.89; to `CN1CCOCC1` [N-methylmorpholine (NMM), N-methylmorpholine, reference compound], 7.1.
Consider `CC(C)C(C)N` (stereo not shown) [1,2 Dimethyl propyl amine, 1,2 dimethylpropylamine], for which the pKa worked out at 9.9.

A further data set can be described thus: Boiling point. The conditions noted are these: Table 2.
`CN1CCCC1` [N-methylpyrrolidine]: the “Boiling Point” value turned out to be 81 °C.
`CN1CCN(C)CC1` [1,4-dimethylpiperazine]: the “Boiling Point” value came out at 132 °C.
Regarding `CN1CCOCC1` [N-methylmorpholine (NMM), N-methylmorpholine, reference compound], the “Boiling Point” value was 116 °C.
Take `CC(C)C(C)N` (stereo not shown) [1,2 Dimethyl propyl amine, 1,2 dimethylpropylamine]: the “Boiling Point” value worked out at 87 °C.

The next data set in a line: Solubility Oil/Water. The conditions noted are these: Table 1.
Consider `CN1CCCC1` [N-methylpyrrolidine], for which the “Solubility Oil/Water” value is “Water”.
With `CN1CCN(C)CC1` [1,4-dimethylpiperazine], the “Solubility Oil/Water” value was “Water”.
For the molecule `NCc1ccco1` [Furfurylamine, furfurylamine], the “Solubility Oil/Water” value was “Water”.
The same measure, in the same setting: the entry for `CC(C)C(C)N` (stereo not shown) [1,2 Dimethyl propyl amine, 1,2 dimethylpropylamine] is “Water”.

The same data set, now with this note: Table 2.
As for `CN1CCCC1` [N-methylpyrrolidine], the “Solubility Oil/Water” value is recorded as “Water”.
Consider `CN1CCN(C)CC1` [1,4-dimethylpiperazine], for which the “Solubility Oil/Water” value was “Water”.
For `CC(C)C(C)N` (stereo not shown) [1,2 Dimethyl propyl amine, 1,2 dimethylpropylamine], the “Solubility Oil/Water” value is listed as “Water”.

Still in this data set, the particulars now being: Table 3, exemplary treatment composition.
With `CN1CCCC1` [N-methylpyrrolidine], the “Solubility Oil/Water” value is “Water”.
Turning to `CN1CCN(C)CC1` [1,4-dimethylpiperazine], the “Solubility Oil/Water” value was “Water”.

Still in this data set, the particulars now being: Table 4, exemplary treatment composition.
With `CN1CCCC1` [N-methylpyrrolidine], the “Solubility Oil/Water” value is on record as “Water”.
As for `CN1CCN(C)CC1` [1,4-dimethylpiperazine], the “Solubility Oil/Water” value is recorded as “Water”.
